Reference: patent US8668942B2, “Skin anti-oxidant enhancing formulation and associated method” (Fishrock Laboratories, Inc., priority 2012, dated 2014)

Legend:
[1] = Total Oxygen radical Scavenging Capacity (TOSC) assay; type: biochemical; settings: for total antioxidant activities, times higher than Trolox: in momordica cochinchinensis aril; for antioxidant capacity, higher than Trolox: in the gac oil
Procedure: (§1) Antioxidant capacities were assessed by the overall abilities of the compounds to suppress peroxyl radicals generated from the thermal homolysis of 2,2′-azobis-amidinopropane. Stock solutions of all samples were diluted 1/100 and 1/1000. […] However, at a lower concentration (dilution of 1/1000), the gac aril provided the highest peroxyl radical-scavenging capacity, 1.8 and 1.3 times as much as β-carotene and lycopene, respectively (FIG. 1b).
Using the TOSC method, it was apparent that total antioxidant activities of beta-carotene and lycopene in momordica cochinchinensis aril were high (2 times higher than Trolox), an analogue of Vitamin E commonly used a gold standard. The comparative TOSC values (cTOSC) of gac (Redmelon™) aril maintains 5.4 times greater than Trolox. […] The results are summarized below in the following table

[2] = Oxygen Radical Absorbance capacity (ORAC) assay; type: biochemical; settings: 1/100 dilution of stock solutions; FIG. 1a
Procedure: Those figures depict graphical comparison of the antioxidant values of momordica cochichinchinensis (gac) aril, β-carotene, and lycopene using […] (ORAC) assay, ORAC values were obtained using a Trolox standard linear regression line.
as §1

Structure (SMILES)	cTOSC ([1]; comparative TOSC value)	rTOSC ([1]; peroxyl radical scavenging capacity)	total antioxidant activities, times higher than Trolox ([1]; relative to Trolox)	antioxidant capacity, higher than Trolox ([1]; relative to Trolox)	ability to scavenge peroxyl radicals, times as much as the Redmelon™ aril [2]	ability to scavenge peroxyl radicals, times as much as β-carotene [2]	peroxyl radical scavenging capacity (rTOSC), times greater than Trolox ([1]; relative to Trolox)
Cc1c(C)c2c(c(C)c1O)CCC(C)(C(=O)O)O2 (stereo not drawn) [Trolox]	1.00	4.51	–	–	–	–	–
CC1=C(/C=C/C(C)=C/C=C/C(C)=C/C=C/C=C(C)/C=C/C=C(C)/C=C/C2=C(C)CCCC2(C)C)C(C)(C)CCC1 [beta-carotene]	–	–	2 times	50%	–	–	–
CC(C)=CCC/C(C)=C/C=C/C(C)=C/C=C/C(C)=C/C=C/C=C(C)/C=C/C=C(C)/C=C/C=C(\C)CCC=C(C)C [lycopene]	–	–	2 times	50%	1.4 times	2.4 times	24 times
